Experiments:
[1] = Steady-state pharmacokinetics in healthy young and elderly subjects
[2] = system: ventricular repolarization, as measured by prolongation of the QT interval; experiment: QT interval prolongation study in healthy young and elderly subjects
[3] = steady state (Days 7-9), ≧18 to ≦45 yrs (N = 16)

## C=C[C@@]1(O)CN2CC[C@H]1C[C@H]2[C@H](O)c1ccnc2ccc(OC)cc12 [3-OH Quinine, 3-hydroxyquinine]
[1]; after formulation 3A, steady state
  increase in rate and extent of absorption, elderly compared to younger subjects: approximately 25%
[1]; steady state (Days 7-9), ≧65 to ≦80 yrs (N = 15)
  T1/2, least squares mean: 18.7 h

## C=C[C@H]1C[N@@]2CC[C@H]1C[C@H]2[C@H](O)c1ccnc2ccc(OC)cc12 [Quinine, cinchonan-9-ol, 6′-methoxy-, (8α,9R)-]
[2]; 30 minutes post dose
  QTcI difference between the elderly and young between quinine and placebo (baseline adjusted): 10.06 ms
[2]; 48 hours post dose
  QTcI difference between the elderly and young between quinine and placebo (baseline adjusted): -1.92 ms
[2]; for the first 6 hours after dosing
  increase of QTcI over placebo: above 20 msec
[2]; in vivo
  subjects with a QTcI greater than 500 msec: No subject
  subjects with a maximum QTcI change from baseline of greater than 60 msec: No subject
[2]; one hour post dose
  maximal increase of QTcI over placebo: 28.3 ms
  upper bound of the one sided confidence interval of maximal QTcI increase over placebo: 31.83 ms
[2]; over 48 hours
  QTcI difference between the elderly and young, mean increase: 3.92 ms
[2]; patients ≧65 years v. younger patients
  effect of age on QTc interval prolongation: did not indicate that patients ≧65 years of age have significantly greater risk of QTc prolongation than younger patients
[2]; up to 14 hours after dosing
  increase of QTcI over placebo: above 10 msecs
[1]; [3]
  AUC(ss), least squares mean: 46100 ng·h/mL
  Tmax(ss), least squares mean: 7780 s

Source: US20120183605A1 (priority 2009, published 2012)
